The numbers were not newly measured in patent publication EP0280593B1, “Composition on the basis of an amino-acid and vitamins for use in cancer therapy” (Rougereau, André, priority 1987, dated 1988), which cites them from elsewhere.

One data set has as its system rat. To be noted: par voie orale chez le rat.
A further data set concerns souris. To be noted: par voie orale chez la souris.

Molecules are shown by their SMILES. Where only a bound is given, the exact number is not on record here.

In the case of `NCCC(=O)O` [β-alanine], the “dose léthale DL₅₀” value in the data set with rat and in the data set on souris was over 10000 mg/kg in each case.
